Experimental data as given in ChEMBL document CHEMBL1201862, “PubChem BioAssay data set” (2004).
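Compound exposure: 48 hours, 5 concentrations, 96-well plates. The concentration for 50% growth inhibition is given as GI50.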 Calls of active or inactive are those of the source. Cut-off read from the data, not from the text of the source: active = GI50 up to about 1.1 µM and inactive = higher.

Columns and labels:
Assay in all cases: NCI anticancer screen, dose series, 48 h
786-0 = system: 786-0
A498 = system: A498
CAKI-1 = system: CAKI-1
HCT-15 = system: HCT-15
HT-29 = system: HT-29
IGROV-1 = system: IGROV-1
M14 = system: M14
MCF7 = system: MCF7
NCI-H23 = system: NCI-H23
OVCAR-3 = system: OVCAR-3
OVCAR-8 = system: OVCAR-8
PC-3 = system: PC-3
RPMI-8226 = system: RPMI-8226
SF-295 = system: SF-295
SF-539 = system: SF-539
SN12C = system: SN12C
SR = system: SR
TK-10 = system: TK-10
U-251 = system: U-251
UACC-62 = system: UACC-62

## Nc1nc(N)c(CCCCc2ccccc2)c(N)n1
786-0
  GI50: > 100 µM (inactive)
A498
  GI50: > 100 µM (inactive)
CAKI-1
  GI50: > 100 µM (inactive)
HCT-15
  GI50: > 100 µM
HT-29
  GI50: > 100 µM (inactive)
IGROV-1
  GI50: > 100 µM (inactive)
M14
  GI50: > 100 µM (inactive)
MCF7
  GI50: > 100 µM (inactive)
NCI-H23
  GI50: > 100 µM (inactive)
OVCAR-3
  GI50: > 100 µM (inactive)
OVCAR-8
  GI50: > 100 µM (inactive)
PC-3
  GI50: > 100 µM (inactive)
RPMI-8226
  GI50: > 100 µM (inactive)
SF-295
  GI50: > 100 µM (inactive)
SF-539
  GI50: > 100 µM (inactive)
SN12C
  GI50: > 100 µM (inactive)
SR
  GI50: > 100 µM (inactive)
TK-10
  GI50: > 100 µM (inactive)
U-251
  GI50: > 100 µM (inactive)
UACC-62
  GI50: > 100 µM (inactive)

## CC1=NN(c2nc(N)nc(/C(C#N)=C\c3ccc(-c4ccc([N+](=O)[O-])cc4)o3)n2)C(C)(C)C1
786-0
  GI50: > 100 µM (inactive)
A498
  GI50: > 100 µM (inactive)
CAKI-1
  GI50: > 100 µM (inactive)
HCT-15
  GI50: > 100 µM
HT-29
  GI50: > 100 µM (inactive)
IGROV-1
  GI50: > 100 µM (inactive)
M14
  GI50: > 100 µM (inactive)
MCF7
  GI50: > 100 µM (inactive)
NCI-H23
  GI50: > 100 µM (inactive)
OVCAR-3
  GI50: > 100 µM (inactive)
OVCAR-8
  GI50: > 100 µM (inactive)
PC-3
  GI50: > 100 µM (inactive)
RPMI-8226
  GI50: > 100 µM (inactive)
SF-295
  GI50: > 100 µM (inactive)
SF-539
  GI50: > 100 µM (inactive)
SN12C
  GI50: > 100 µM (inactive)
SR
  GI50: 11.1 µM (inactive)
TK-10
  GI50: > 100 µM (inactive)
U-251
  GI50: 39.5 µM (inactive)
UACC-62
  GI50: > 100 µM (inactive)

## BrC(=C(c1ccc(OC2CCCCO2)cc1)c1ccc(OC2CCCCO2)cc1)c1ccccc1 (stereo not given)
786-0
  GI50: > 100 µM (inactive)
A498
  GI50: > 100 µM (inactive)
CAKI-1
  GI50: > 100 µM (inactive)
HCT-15
  GI50: > 100 µM
HT-29
  GI50: > 100 µM (inactive)
IGROV-1
  GI50: > 100 µM (inactive)
M14
  GI50: > 100 µM (inactive)
MCF7
  GI50: > 100 µM (inactive)
NCI-H23
  GI50: > 100 µM (inactive)
OVCAR-3
  GI50: > 100 µM (inactive)
OVCAR-8
  GI50: > 100 µM (inactive)
PC-3
  GI50: > 100 µM (inactive)
RPMI-8226
  GI50: > 100 µM (inactive)
SF-295
  GI50: > 100 µM (inactive)
SF-539
  GI50: > 100 µM (inactive)
SN12C
  GI50: > 100 µM (inactive)
SR
  GI50: > 100 µM (inactive)
TK-10
  GI50: 28.8 µM (inactive)
U-251
  GI50: > 100 µM (inactive)
UACC-62
  GI50: > 100 µM (inactive)

## Clc1ccc(C2Nc3ccccc3C3=NCCN32)cc1 (stereo not given)
786-0
  GI50: 18.5 µM (inactive)
A498
  GI50: 22.9 µM (inactive)
CAKI-1
  GI50: 26.5 µM (inactive)
HCT-15
  GI50: 34.3 µM
HT-29
  GI50: 11.4 µM (inactive)
IGROV-1
  GI50: 14.2 µM (inactive)
M14
  GI50: 15.1 µM (inactive)
MCF7
  GI50: 22.3 µM (inactive)
NCI-H23
  GI50: 19.5 µM (inactive)
OVCAR-3
  GI50: 33.5 µM (inactive)
OVCAR-8
  GI50: 18.3 µM (inactive)
PC-3
  GI50: 55.3 µM (inactive)
RPMI-8226
  GI50: 15.9 µM (inactive)
SF-295
  GI50: 14.8 µM (inactive)
SF-539
  GI50: 15.6 µM (inactive)
SN12C
  GI50: 29.8 µM (inactive)
SR
  GI50: 21 µM (inactive)
TK-10
  GI50: 16.8 µM (inactive)
U-251
  GI50: 25.9 µM (inactive)
UACC-62
  GI50: 16.9 µM (inactive)

## O=C(NCCc1ccc(F)cc1)c1cc(/C=C/c2cc(O)ccc2O)ccc1O
786-0
  GI50: 2.24 µM (inactive)
A498
  GI50: 4.06 µM (inactive)
CAKI-1
  GI50: 3.03 µM (inactive)
HCT-15
  GI50: 2.26 µM
HT-29
  GI50: 14.4 µM (inactive)
IGROV-1
  GI50: 2.31 µM (inactive)
M14
  GI50: 3.67 µM (inactive)
MCF7
  GI50: 2.45 µM (inactive)
NCI-H23
  GI50: 3.28 µM (inactive)
OVCAR-3
  GI50: 2.56 µM (inactive)
OVCAR-8
  GI50: 3.29 µM (inactive)
PC-3
  GI50: 2.96 µM (inactive)
RPMI-8226
  GI50: 3.01 µM (inactive)
SF-295
  GI50: 16.1 µM (inactive)
SF-539
  GI50: 2.36 µM (inactive)
SN12C
  GI50: 5.51 µM (inactive)
SR
  GI50: 2.96 µM (inactive)
TK-10
  GI50: 2.61 µM (inactive)
U-251
  GI50: 2.1 µM (inactive)
UACC-62
  GI50: 2.12 µM (inactive)
